“And” between values parts separate entries of the source, which are not always exact repeats. Identical values can stand only once. “Also recorded” adds a separate entry of the source.
Columns and labels:
[1] = target: T1, Ndom (soluble form of the N‐domain of sACE) (Homo sapiens, UniProt P12821); test: Aβ(4–10)Y hydrolysis by Ndom, fluorogenic assay; assay type: biochemical
T1 construct: made in house; host or cells: CHO cells
Text: (§1) Fluorogenic substrates designed around the established N‐terminal Asp7‐Ser8 cleavage site of the full‐length Aβ(1–42) were used to develop a higher throughput assay. There are two variations of the short fluorogenic peptides: Aβ(4–10)Q (Abz‐FRHDSG(Q)‐EDDnp) which has an N‐terminal Abz donor and a C‐terminal EDDnp quencher group attached to an additional Gln residue. The second peptide, Aβ(4–10)Y (Abz‐FRHDSG‐(NT)) has a different quencher molecule, NT, which substitutes for the naturally occurring Tyr residue.
(§2) An alternative fluorogenic peptide, Abz‐FRHDSG‐(NT) (BIOPEP™ South Africa) was assayed, with 100 μL enzyme and 100 μL substrate (at a final enzyme concentration within 10% hydrolysis of total substrate; see Table 3) as above, in 96‐well plates. The samples were read at the 5 min time point on a Cary Eclipse spectrofluorimeter (Varian Inc.) at λex = 320 nm and λem = 420 nm. Kinetic constants, inner filter effect and standard curves were calculated as above.
(§3) Statistical analysis of the data was determined by Student's t test. Differences with P < 0.05 were considered statistically significant. Fractional error was calculated for the k cat/K m ratio with the following equation: ΔZ=ZΔa/a^2+Δb/b^2 where Z represents the mean k cat/K m and ΔZ represents the fractional error. The Δa represents the SEM of the mean k cat (a). Similarly, Δb represents the SEM of the mean K m (b).

C‐sACE = target: T2, C‐sACE (Homo sapiens, UniProt P12821, H390K/H394K); test: Aβ(4–10)Y hydrolysis by C‐sACE, fluorogenic assay; assay type: biochemical
T2 construct: Both constructs have the complete signal, transmembrane and stalk region corresponding to full‐length sACE; made in house; host or cells: CHO cells; purified from cell lysate
T2 sequence (P12821 30-1306 H390K/H394K): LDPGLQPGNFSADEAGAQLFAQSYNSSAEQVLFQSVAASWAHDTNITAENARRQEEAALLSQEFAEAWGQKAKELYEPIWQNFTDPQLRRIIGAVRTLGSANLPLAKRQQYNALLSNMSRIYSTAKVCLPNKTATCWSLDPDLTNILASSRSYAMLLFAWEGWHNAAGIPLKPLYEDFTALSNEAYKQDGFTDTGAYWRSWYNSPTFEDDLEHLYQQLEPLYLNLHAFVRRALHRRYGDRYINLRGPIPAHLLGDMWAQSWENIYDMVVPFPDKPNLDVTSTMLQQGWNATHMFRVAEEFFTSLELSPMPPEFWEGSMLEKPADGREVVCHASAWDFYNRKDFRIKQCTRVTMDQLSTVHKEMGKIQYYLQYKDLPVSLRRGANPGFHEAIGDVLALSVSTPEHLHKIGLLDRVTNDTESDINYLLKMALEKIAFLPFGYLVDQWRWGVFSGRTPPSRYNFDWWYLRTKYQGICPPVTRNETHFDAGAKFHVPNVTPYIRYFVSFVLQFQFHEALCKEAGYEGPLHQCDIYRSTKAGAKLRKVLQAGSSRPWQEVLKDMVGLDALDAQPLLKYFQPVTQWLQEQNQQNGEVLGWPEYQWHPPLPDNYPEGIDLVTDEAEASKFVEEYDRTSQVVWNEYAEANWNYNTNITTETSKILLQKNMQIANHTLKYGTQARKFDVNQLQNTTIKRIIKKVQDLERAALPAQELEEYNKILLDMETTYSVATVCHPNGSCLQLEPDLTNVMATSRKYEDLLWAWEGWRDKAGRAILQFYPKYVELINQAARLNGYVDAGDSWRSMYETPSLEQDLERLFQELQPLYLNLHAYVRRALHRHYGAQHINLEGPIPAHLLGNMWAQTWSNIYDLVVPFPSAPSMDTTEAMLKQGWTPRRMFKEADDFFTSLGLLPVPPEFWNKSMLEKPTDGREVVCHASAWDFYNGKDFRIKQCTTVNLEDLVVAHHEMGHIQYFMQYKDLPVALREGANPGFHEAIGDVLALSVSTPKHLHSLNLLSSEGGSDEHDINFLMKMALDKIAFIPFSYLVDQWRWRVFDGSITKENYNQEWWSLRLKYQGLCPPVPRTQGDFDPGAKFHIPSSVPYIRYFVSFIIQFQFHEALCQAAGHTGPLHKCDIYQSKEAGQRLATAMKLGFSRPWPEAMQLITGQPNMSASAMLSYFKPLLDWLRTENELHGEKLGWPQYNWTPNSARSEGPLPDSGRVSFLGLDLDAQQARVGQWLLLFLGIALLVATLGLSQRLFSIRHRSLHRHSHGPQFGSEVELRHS
Text: as §1, §2, §3

ACE variants = test: Cleavage‐site analysis by MALDI‐TOF MS, kinetic assay conditions; assay type: biochemical, human; settings: MALDI‐TOF MS of products within kinetic assay conditions; Aβ(1–16): all ACE variants except Cdom; Aβ(4–10) peptides: Cdom and CC‐sACE not analysed
Procedure: The mass spectrometry was analysed at the Centre for Proteomic and Genomic Research (Cape Town, South Africa). Briefly, the collected peptides were spotted onto a 10 mg·mL^−1 α‐cyano‐4‐hydroxycinnamic acid matrix (Fluka, USA) in 80% ACN, 0.2% TFA for a final concentration of 5 mg·mL^−1 matrix in 40% ACN, 0.1% TFA, 10 mM NH4H2PO4. Mass spectrometry was performed with a 4800 MALDI‐TOF/TOF (Applied Biosytems) with all spectra recorded in positive reflector mode. Spectra were generated with 400 laser shots/spectrum at a laser intensity of 3800 (arbitrary units) with a grid voltage of 16 kV.

CC‐sACE [2] = test: Aβ(4–10)Y hydrolysis by CC‐sACE, fluorogenic assay; assay type: biochemical, human; settings: fluorescence λex 320 nm, λem 420 nm, Hepes pH 7.5 buffer as for Aβ(4–10)Q, 5 min time point, enzyme 0.071 pmol, n = 3
Chain of CC‐sACE (P12821 643-1222 limits assumed): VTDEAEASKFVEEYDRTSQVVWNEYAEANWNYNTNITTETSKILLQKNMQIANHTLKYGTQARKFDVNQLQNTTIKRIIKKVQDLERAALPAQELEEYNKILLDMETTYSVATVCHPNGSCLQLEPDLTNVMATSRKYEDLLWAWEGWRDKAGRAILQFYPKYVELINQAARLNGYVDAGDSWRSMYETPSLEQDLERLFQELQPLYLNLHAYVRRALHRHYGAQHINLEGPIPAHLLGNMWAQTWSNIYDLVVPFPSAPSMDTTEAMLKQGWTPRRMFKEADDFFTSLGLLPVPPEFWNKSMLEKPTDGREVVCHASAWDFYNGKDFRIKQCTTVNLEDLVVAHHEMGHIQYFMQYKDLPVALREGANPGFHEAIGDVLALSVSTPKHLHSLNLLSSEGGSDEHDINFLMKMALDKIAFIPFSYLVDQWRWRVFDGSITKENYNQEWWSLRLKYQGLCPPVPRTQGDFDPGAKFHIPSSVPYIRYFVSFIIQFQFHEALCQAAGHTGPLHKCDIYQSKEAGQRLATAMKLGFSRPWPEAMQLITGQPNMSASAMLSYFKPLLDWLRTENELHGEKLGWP
Text: as §1, §2, §3

sACE = target: T3, sACE (Homo sapiens, UniProt P12821); test: Aβ(4–10)Y hydrolysis by sACE, fluorogenic assay; assay type: biochemical
T3 construct: made in house; host or cells: CHO cells; purified from cell lysate
T3 sequence (P12821 30-1306): as the sequence (P12821 30-1306 H390K/H394K) above, with K361H, K365H counted along it
Text: as §1, §2, §3

N‐sACE = target: T4, N‐sACE (Homo sapiens, UniProt P12821, H988K/H992K); test: Aβ(4–10)Y hydrolysis by N‐sACE, fluorogenic assay; assay type: biochemical; settings: fluorescence λex 320 nm, λem 420 nm, Hepes pH 7.5 buffer as for Aβ(4–10)Q, 5 min time point, enzyme 0.113 pmol, n = 3
T4 construct: Both constructs have the complete signal, transmembrane and stalk region corresponding to full‐length sACE; made in house; host or cells: CHO cells; purified from cell lysate
T4 sequence (P12821 30-1306 H988K/H992K): as the sequence (P12821 30-1306 H390K/H394K) above, with K361H, K365H, H959K, H963K counted along it
Text: as §1, §2, §3

[3] = target: T5, Cdom (soluble form of the C‐domain of sACE) (Homo sapiens, UniProt P12821); test: Aβ(4–10)Y hydrolysis by Cdom, fluorogenic assay; assay type: biochemical; settings: fluorescence λex 320 nm, λem 420 nm, Hepes pH 7.5 buffer as for Aβ(4–10)Q, 5 min time point, enzyme 0.835 pmol, n = 3
T5 construct: lacks the transmembrane region and unique 36 amino acid N terminus (and is therefore identical to the sACE C‐domain); made in house; host or cells: CHO cells
T5 sequence (P12821 643-1222 limits assumed): as the sequence (P12821 643-1222 limits assumed) above
Text: as §1, §2, §3

CC‐sACE [4] = test: Interdomain cooperativity of two C‐domains; assay type: biochemical, human; settings: catalytic ability per active site versus individual domains
Procedure: as §2

[5] = fluorescence λex 320 nm, λem 420 nm, Hepes pH 7.5 buffer as for Aβ(4–10)Q, 5 min time point, enzyme 0.228 pmol, mean ± SEM, n = 3
[6] = fluorescence λex 320 nm, λem 420 nm, Hepes pH 7.5 buffer as for Aβ(4–10)Q, 5 min time point, enzyme 0.226 pmol, mean ± SEM, n = 3
[7] = mean ± fractional error of the ratio
[8] = fluorescence λex 320 nm, λem 420 nm, Hepes pH 7.5 buffer as for Aβ(4–10)Q, 5 min time point, enzyme 0.031 pmol, mean ± SEM, n = 3

T1 sequence (P12821 30-658): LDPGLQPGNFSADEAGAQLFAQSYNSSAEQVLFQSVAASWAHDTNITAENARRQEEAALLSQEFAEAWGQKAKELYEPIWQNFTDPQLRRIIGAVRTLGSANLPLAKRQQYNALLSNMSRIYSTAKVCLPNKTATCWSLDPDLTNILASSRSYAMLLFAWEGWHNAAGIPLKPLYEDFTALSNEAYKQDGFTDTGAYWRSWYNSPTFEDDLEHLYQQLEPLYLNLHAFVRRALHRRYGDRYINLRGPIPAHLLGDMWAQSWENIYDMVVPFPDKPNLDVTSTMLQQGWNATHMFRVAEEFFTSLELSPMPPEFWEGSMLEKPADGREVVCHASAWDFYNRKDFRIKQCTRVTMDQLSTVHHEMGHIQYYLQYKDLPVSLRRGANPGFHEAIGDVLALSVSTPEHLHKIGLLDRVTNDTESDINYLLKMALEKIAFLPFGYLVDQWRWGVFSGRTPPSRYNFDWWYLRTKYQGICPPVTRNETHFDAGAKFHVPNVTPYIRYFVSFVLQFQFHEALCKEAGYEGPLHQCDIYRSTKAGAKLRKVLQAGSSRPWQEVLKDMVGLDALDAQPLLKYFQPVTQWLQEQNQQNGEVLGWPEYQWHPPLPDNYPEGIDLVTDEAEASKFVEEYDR

Abz‐FRHDSG‐(NT) [Aβ(4–10)Y, fluorogenic Aβ(4–10) peptide with NT quencher substituting for Tyr]
catalytic efficiency by Ndom relative to Aβ(1–16) ([1]; […] 10^5 versus […] 10^5 M^−1·s^−1): half the catalytic efficiency | K m [1, 5]: 21.20 ± 0.31 µM | V max [1, 5]: 4.62 ± 0.14 | k cat [1, 5]: 20.30 ± 0.62 s⁻¹ | k cat/K m ([1]; fluorescence λex 320 nm, λem 420 nm, Hepes pH 7.5 buffer as for Aβ(4–10)Q, 5 min time point, enzyme 0.228 pmol, mean ± fractional error of the ratio, n = 3): 9.57 M^−1·s^−1 × 10^5 and 9.57 ± 0.33 M^−1·s^−1 × 10^5 | C‐sACE K m, fold larger than its active N‐domain counterpart (C‐sACE; C‐sACE versus active N‐domain counterpart, P < 0.05): 2 fold | K m (C‐sACE; [6]): 38.10 ± 0.10 µM | V max (C‐sACE; [6]): 1.57 ± 0.09 | k cat (C‐sACE; [6]): 6.95 ± 1.39 s⁻¹ | k cat/K m (C‐sACE; fluorescence λex 320 nm, λem 420 nm, Hepes pH 7.5 buffer as for Aβ(4–10)Q, 5 min time point, enzyme 0.226 pmol, mean ± fractional error of the ratio, n = 3): 1.83 ± 0.18 M^−1·s^−1 × 10^5 | cleavage site (bond) (ACE variants): Asp7‐Ser8 | K m (CC‐sACE [2]; mean ± SEM): 20.30 ± 2.55 µM | V max (CC‐sACE [2]; mean ± SEM): 0.90 ± 0.08 | k cat (CC‐sACE [2]; mean ± SEM): 12.70 ± 1.16 s⁻¹ | k cat/K m (CC‐sACE [2]; [7]): 6.33 ± 0.98 M^−1·s^−1 × 10^5 | K m (sACE; [8]): 12.60 ± 2.48 µM | V max (sACE; [8]): 0.90 ± 0.18 | k cat (sACE; [8]): 28.70 ± 5.81 s⁻¹ | k cat/K m (sACE; fluorescence λex 320 nm, λem 420 nm, Hepes pH 7.5 buffer as for Aβ(4–10)Q, 5 min time point, enzyme 0.031 pmol, mean ± fractional error of the ratio, n = 3): 22.67 ± 6.40 M^−1·s^−1 × 10^5 | catalytic efficiency of sACE, fold greater than Ndom (sACE; sACE versus Ndom, P < 0.05): 2 fold | K m (N‐sACE; mean ± SEM): 8.56 ± 0.83 µM | V max (N‐sACE; mean ± SEM): 0.44 ± 0.01 | k cat (N‐sACE; mean ± SEM): 3.87 ± 0.09 s⁻¹ | k cat/K m (N‐sACE; [7]): 4.61 ± 0.46 M^−1·s^−1 × 10^5 | K m ([3]; mean ± SEM): 27.23 ± 9.52 µM | V max ([3]; mean ± SEM): 4.45 ± 0.63 | k cat ([3]; mean ± SEM): 5.33 ± 0.76 s⁻¹ | k cat/K m [3, 7]: 2.30 ± 0.87 M^−1·s^−1 × 10^5 | cooperativity between the two C‐domains of CC‐sACE (CC‐sACE [4]): no cooperativity; also recorded: an additive effect between the two C‐domains
